From the supplement of paper PMC10307832

Tests used:
Test in all cases: relative viability (nuclei count vs DMSO), 5 days (fraction); higher = more cells survive
IPA-3 + Trametinib = compound: C1=CC=C2C(=C1)C=CC(=C2SSC3=C(C=CC4=CC=CC=C43)O)O [IPA-3] + CC(=O)Nc1cccc(-n2c(=O)n(C3CC3)c(=O)c3c(Nc4ccc(I)cc4F)n(C)c(=O)c(C)c32)c1 [Trametinib] (partner 0.02 µM)
Procedure, shortened: (§1)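 Cells from lung cancer lines were seeded into 1536-well plates and, one day later, dosed by pin tool. Treatments were either a single drug or a fixed dose of an anchor drug with five library-drug doses (not always all listed) in √10 steps. After 5 days, nuclei were stained in a one-step fixation (final 0.05% Triton X-100, 1% formaldehyde, 1 ug/ml Hoechst) and counted on 4× images, and relative viability is the treated-to-vehicle nuclei ratio, as the median of duplicate plates.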

RAF265 + Linsitinib = compound: Cn1c(Nc2ccc(C(F)(F)F)cc2)nc2cc(Oc3ccnc(-c4ncc(C(F)(F)F)[nH]4)c3)ccc21 [RAF265] + C[C@]1(O)C[C@@H](c2nc(-c3ccc4ccc(-c5ccccc5)nc4c3)c3c(N)nccn32)C1 [Linsitinib] (partner 1 µM)
Procedure, shortened: as §1

RAF265 + Tozasertib = compound: Cn1c(Nc2ccc(C(F)(F)F)cc2)nc2cc(Oc3ccnc(-c4ncc(C(F)(F)F)[nH]4)c3)ccc21 [RAF265] + Cc1cc(Nc2cc(N3CCN(C)CC3)nc(Sc3ccc(NC(=O)C4CC4)cc3)n2)n[nH]1 [Tozasertib] (partner 0.1 µM)
Procedure, shortened: as §1

IPA-3 + OSI-027 = compound: C1=CC=C2C(=C1)C=CC(=C2SSC3=C(C=CC4=CC=CC=C43)O)O [IPA-3] + COc1cccc2cc(-c3nc([C@H]4CC[C@H](C(=O)O)CC4)n4ncnc(N)c34)[nH]c12 [OSI-027] (partner 0.5 µM)
Procedure, shortened: as §1

Cell Line | relative viability (IPA-3 + Trametinib; first compound 0.2 µM) | relative viability (IPA-3 + Trametinib; first compound 0.6325 µM) | relative viability (IPA-3 + Trametinib; first compound 2 µM) | relative viability (IPA-3 + Trametinib; first compound 6.325 µM) | relative viability (IPA-3 + Trametinib; first compound 20 µM) | relative viability (RAF265 + Linsitinib; first compound 0.01 µM) | relative viability (RAF265 + Linsitinib; first compound 0.03162 µM) | relative viability (RAF265 + Linsitinib; first compound 0.1 µM) | relative viability (RAF265 + Linsitinib; first compound 0.3162 µM) | relative viability (RAF265 + Linsitinib; first compound 1 µM) | relative viability (RAF265 + Tozasertib; first compound 0.01 µM) | relative viability (RAF265 + Tozasertib; first compound 0.03162 µM) | relative viability (RAF265 + Tozasertib; first compound 0.1 µM) | relative viability (RAF265 + Tozasertib; first compound 0.3162 µM) | relative viability (RAF265 + Tozasertib; first compound 1 µM) | relative viability (IPA-3 + OSI-027; first compound 0.2 µM) | relative viability (IPA-3 + OSI-027; first compound 0.6325 µM) | relative viability (IPA-3 + OSI-027; first compound 6.325 µM) | relative viability (IPA-3 + OSI-027; first compound 20 µM) | relative viability (IPA-3 + OSI-027; first compound 2 µM)
201T | 0.73 | 0.679 | 0.714 | 0.744 | 0.786 | 1.04 | 0.982 | 0.994 | 0.89 | 0.885 | 0.955 | 0.862 | 1.03 | 0.939 | 0.696 | 0.741 | 0.683 | 0.743 | 0.755 | 
A549 |  |  |  |  |  | 0.61 | 0.536 | 0.648 | 0.273 | 0.249 |  |  |  |  |  |  |  |  |  | 
A-427 | 0.798 | 0.769 | 0.705 | 0.629 | 0.732 | 1.15 | 1.07 | 1.16 | 0.676 | 0.499 | 0.218 | 0.213 | 0.205 | 0.109 | 0.089 | 0.432 | 0.438 | 0.388 | 0.451 | 0.491
ABC-1 |  |  |  |  |  | 0.875 | 0.803 | 0.933 | 0.661 | 0.407 | 0.17 | 0.202 | 0.178 | 0.158 | 0.24 | 0.55 | 0.426 | 0.564 | 0.567 | 0.457
BEN | 1.05 | 1.04 | 1.15 | 1.13 | 1.16 | 0.897 | 1.01 | 1.12 | 0.939 | 0.791 | 0.441 | 0.575 | 0.468 | 0.554 | 0.407 | 0.309 | 0.295 | 0.302 | 0.333 | 0.288
CAL-12T | 0.505 | 0.366 | 0.232 | 0.338 | 0.457 | 0.969 | 0.659 | 0.671 | 0.43 | 0.4 | 0.392 | 0.308 | 0.364 | 0.306 | 0.172 | 0.884 | 0.63 | 0.475 | 0.656 | 0.676
COR-L23 | 0.743 | 0.557 | 0.654 | 0.579 | 0.21 | 0.847 | 0.838 | 0.662 | 0.431 | 0.312 | 0.212 | 0.176 | 0.208 | 0.201 | 0.161 | 1.05 | 0.771 | 0.696 | 0.552 | 0.795
COR-L 105 | 0.484 | 0.509 | 0.474 | 0.445 | 0.442 | 1.17 | 0.882 | 0.976 | 0.725 | 0.504 | 0.435 | 0.423 | 0.341 | 0.451 | 0.317 | 0.9 | 0.569 | 0.74 | 0.738 | 0.603
Calu-6 |  |  |  |  |  | 0.94 | 0.83 | 0.523 | 0.279 | 0.223 |  |  |  |  |  |  |  |  |  | 
ChaGo-K-1 | 0.979 | 0.886 | 0.917 | 0.884 | 1 |  |  |  |  |  | 0.215 | 0.246 | 0.217 | 0.243 | 0.235 | 0.708 | 0.551 | 0.603 | 0.628 | 0.574
EBC-1 |  |  |  |  |  | 0.963 | 0.856 | 0.754 | 0.577 | 0.503 |  |  |  |  |  |  |  |  |  | 
EKVX | 0.403 | 0.314 | 0.359 | 0.38 | 0.376 | 0.98 | 1.02 | 1.04 | 0.534 | 0.822 | 0.376 | 0.344 | 0.469 | 0.377 | 0.306 | 0.649 | 0.68 | 0.728 | 0.786 | 0.738
EMC-BAC-2 | 0.938 | 0.843 | 0.829 | 0.914 | 0.812 | 0.761 | 0.793 | 0.734 | 0.596 | 0.348 | 0.28 | 0.266 | 0.209 | 0.202 | 0.082 | 0.435 | 0.379 | 0.482 | 0.438 | 0.367
EPLC-272H | 0.327 | 0.337 | 0.273 | 0.301 | 0.319 | 1.08 | 1.02 | 1.03 | 0.608 | 0.431 | 0.218 | 0.328 | 0.275 | 0.257 | 0.199 | 0.293 | 0.281 | 0.264 | 0.335 | 0.236
H3255 | 0.756 | 0.573 | 0.629 | 0.554 | 0.606 | 1 | 0.942 | 0.929 | 0.137 | 0.716 | 0.553 | 0.54 | 0.605 |  | 0.476 | 0.609 | 0.566 | 0.508 | 0.62 | 0.677
HARA | 0.884 | 0.899 | 0.63 | 0.591 | 1.02 | 0.904 | 0.715 | 0.891 | 0.608 | 0.406 | 0.12 | 0.0972 | 0.13 | 0.0934 | 0.0806 | 0.605 | 0.45 | 0.396 | 0.606 | 0.479
HCC-15 | 0.444 | 0.352 | 0.391 | 0.422 | 0.436 | 0.886 | 0.835 | 0.754 | 0.639 | 0.394 | 0.406 | 0.32 | 0.538 | 0.401 | 0.278 | 0.765 | 0.685 | 0.688 | 0.718 | 0.636
HCC-44 | 1.09 | 1.04 | 1.13 | 0.984 | 1.05 | 0.643 | 0.617 | 0.667 | 0.661 | 0.64 | 0.892 | 0.779 | 1.25 | 1.07 | 0.821 | 0.516 | 0.704 | 0.482 | 0.484 | 0.489
